Reference: ChEMBL document CHEMBL4616702 (ACS Med Chem Lett, 2020)

Columns and labels:
[1] = Half life in human liver microsomes in presence of NADPH by LC/MS/MS method; assay type: ADME, Microsome
[2] = Half life in rat liver microsomes in presence of NADPH by LC/MS/MS metho; assay type: ADME, Microsome; conditions: for half-life: liver microsomes; for t1/2: microsomes
[3] = Half life in mouse liver microsomes in presence of NADPH by LC/MS/MS method; assay type: ADME, Microsome; conditions: for half-life: liver microsomes
[4] = Drug concentration in Balb/c mouse at 10 mg/kg, po measured upto 24 hrs; assay type: ADME, organism-based; conditions: in vivo, read-out: Drug uptake
[5] = AUC (0 to 24 hrs) in Balb/c mouse at 10 mg/kg, po; assay type: ADME, organism-based; parameters: dose 10 mg/kg, time < 24 hr, route oral; conditions: in vivo
[6] = Cmax in Balb/c mouse at 10 mg/kg, po; assay type: ADME, organism-based; parameters: dose 10 mg/kg, route oral; conditions: in vivo

**Q.** Which results are given for `O=C(O)[C@H]1CC[C@H](C(=O)N2CC[C@@]3(S(=O)(=O)c4ccc(F)cc4)c4ccc(C(F)(C(F)(F)F)C(F)(F)F)cc4CC[C@@H]23)CC1`?
**A.** half-life [1]: > 2 h; half-life [2]: > 2 h; half-life [3]: > 2 h

**Q.** Which results are given for `O=C(N1CC[C@@]2(S(=O)(=O)c3ccc(F)cc3)c3ccc(C(F)(C(F)(F)F)C(F)(F)F)cc3CC[C@@H]12)C1(O)CCS(=O)(=O)CC1`?
**A.** half-life [1]: > 2 h; half-life [2]: > 2 h; half-life [3]: > 2 h

**Q.** For `C[C@H]1C[C@H](C(=O)O)CC[C@H]1C(=O)N1CC[C@@]2(S(=O)(=O)c3cccc(F)c3)c3ccc(C(F)(C(F)(F)F)C(F)(F)F)cc3CC[C@@H]12`, which half-life [1] is on record?
**A.** The half-life was > 2 h.

**Q.** And the half-life [2]?
**A.** The half-life was 1.78 h.

**Q.** What about the half-life [3] of the same compound?
**A.** The half-life was > 2 h.

**Q.** Which half-life [1] does the source give for `C[C@H]1C[C@H](C(=O)N2CC[C@@]3(S(=O)(=O)c4cccc(F)c4)c4ccc(C(F)(C(F)(F)F)C(F)(F)F)cc4CC[C@@H]23)CC[C@H]1C(=O)O` here?
**A.** The half-life was > 2 h.

**Q.** And the concentration at 24 h [4]?
**A.** The concentration at 24 h was 0.78 µM.

**Q.** What about the half-life [2] of the same compound?
**A.** Its half-life is > 2 h.

**Q.** What about the AUC(0-t) at 24 h [5] of the same compound?
**A.** The AUC(0-t) at 24 h was 72 µM·h.

**Q.** What about the Cmax [6] of the same compound?
**A.** Its Cmax is 12 µM.

**Q.** What about the half-life [3] of the same compound?
**A.** The half-life was > 2 h.

**Q.** For `C[C@@H]1C[C@H](C(=O)N2CC[C@@]3(S(=O)(=O)c4ccc(F)cc4)c4ccc(C(F)(C(F)(F)F)C(F)(F)F)cc4CC[C@@H]23)CC[C@H]1C(=O)O`, which half-life [1] is on record?
**A.** The half-life was > 2 h.

**Q.** What about the concentration at 24 h [4] of the same compound?
**A.** Its concentration at 24 h is 2.2 µM.

**Q.** And the half-life [2]?
**A.** The half-life was 1.22 h.

**Q.** What about the AUC(0-t) at 24 h [5] of the same compound?
**A.** The AUC(0-t) at 24 h was 134 µM·h.

**Q.** And the Cmax [6]?
**A.** Its Cmax is 9 µM.

**Q.** And the half-life [3]?
**A.** The half-life was > 2 h.

**Q.** With `C[C@@H]1C[C@H](C(=O)O)CC[C@H]1C(=O)N1CC[C@@]2(S(=O)(=O)c3ccc(F)cc3)c3ccc(C(F)(C(F)(F)F)C(F)(F)F)cc3CC[C@@H]12` as the compound, how does the half-life [1] read?
**A.** Its half-life is > 2 h.

**Q.** What about the half-life [2] of the same compound?
**A.** Its half-life is > 2 h.

**Q.** What about the half-life [3] of the same compound?
**A.** The half-life was > 2 h.

**Q.** For `C[C@H]1C[C@@H](C(=O)N2CC[C@@]3(S(=O)(=O)c4ccc(F)cc4)c4ccc(C(F)(C(F)(F)F)C(F)(F)F)cc4CC[C@@H]23)CCS1(=O)=O` (stereo in doubt; 3), which half-life [1] is on record?
**A.** Its half-life is > 2 h.

**Q.** What about the t1/2 [2] of the same compound?
**A.** The t1/2 was > 2 h.

**Q.** What about the half-life [3] of the same compound?
**A.** Its half-life is > 2 h.

**Q.** For `C[C@H]1C[C@@H](C(=O)N2CC[C@@]3(S(=O)(=O)c4ccc(F)cc4)c4ccc(C(F)(C(F)(F)F)C(F)(F)F)cc4CC[C@@H]23)CCS1(=O)=O` (stereo in doubt; 4), which t1/2 [2] is on record?
**A.** Its t1/2 is 0.55 h.

**Q.** And the t1/2 ([3]; microsomes)?
**A.** Its t1/2 is 1.63 h.
